In paper PMC9609004, “Computational Design, Synthesis, and Pharmacological Evaluation of Naproxen-Guaiacol Chimera for Gastro-Sparing Anti-Inflammatory Response by Selective COX2 Inhibition” (Molecules, 2022):
“And” between values parts separate entries of the source, which are not always exact repeats. Equal values may be shown once. “Also recorded” adds a separate entry of the source. Read-outs that look alike come from different tables or passages of the source. One block for each compound: values may come before it.

Legend:
COX1 = target: T1, COX1 (Ovis aries, UniProt P05979); test: Cyclooxygenase (COX1) inhibitory assay, ovine/human COX inhibitor assay kit; format: biochemical; details: n = 3, mean ± SD
T1 construct: purchased
T1 sequence (P05979 25-600): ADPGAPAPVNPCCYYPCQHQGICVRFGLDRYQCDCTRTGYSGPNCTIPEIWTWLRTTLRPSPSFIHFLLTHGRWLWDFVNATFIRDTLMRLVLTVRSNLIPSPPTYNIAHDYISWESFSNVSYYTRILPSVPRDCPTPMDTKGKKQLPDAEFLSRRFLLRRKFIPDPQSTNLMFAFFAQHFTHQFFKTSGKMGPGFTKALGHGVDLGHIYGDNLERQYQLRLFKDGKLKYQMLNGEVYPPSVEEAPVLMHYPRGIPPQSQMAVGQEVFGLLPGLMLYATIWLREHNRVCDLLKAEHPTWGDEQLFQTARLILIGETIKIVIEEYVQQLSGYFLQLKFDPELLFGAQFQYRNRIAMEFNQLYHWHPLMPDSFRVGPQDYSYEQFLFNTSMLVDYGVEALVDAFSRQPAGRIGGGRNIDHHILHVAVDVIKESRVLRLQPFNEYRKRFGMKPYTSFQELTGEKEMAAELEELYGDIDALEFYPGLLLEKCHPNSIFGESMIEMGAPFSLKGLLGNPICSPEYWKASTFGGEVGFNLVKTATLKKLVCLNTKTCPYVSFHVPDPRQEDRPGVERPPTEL
Description: (§1) After that, 10 µL of arachidonic acid (100 µM), after 2 min of 1 M HCl of 50 µL and Ellman’s reagent, was added. The absorbance at 410 nm was measured spectrophotometrically against the blank. The selectivity index was calculated as follows:SI = IC50 COX1/IC50 COX2

COX2 = target: T2, COX2 (Homo sapiens, UniProt P35354); test: Cyclooxygenase (COX2) inhibitory assay, ovine/human COX inhibitor assay kit; format: biochemical
T2 construct: purchased
T2 sequence (P35354 18-604): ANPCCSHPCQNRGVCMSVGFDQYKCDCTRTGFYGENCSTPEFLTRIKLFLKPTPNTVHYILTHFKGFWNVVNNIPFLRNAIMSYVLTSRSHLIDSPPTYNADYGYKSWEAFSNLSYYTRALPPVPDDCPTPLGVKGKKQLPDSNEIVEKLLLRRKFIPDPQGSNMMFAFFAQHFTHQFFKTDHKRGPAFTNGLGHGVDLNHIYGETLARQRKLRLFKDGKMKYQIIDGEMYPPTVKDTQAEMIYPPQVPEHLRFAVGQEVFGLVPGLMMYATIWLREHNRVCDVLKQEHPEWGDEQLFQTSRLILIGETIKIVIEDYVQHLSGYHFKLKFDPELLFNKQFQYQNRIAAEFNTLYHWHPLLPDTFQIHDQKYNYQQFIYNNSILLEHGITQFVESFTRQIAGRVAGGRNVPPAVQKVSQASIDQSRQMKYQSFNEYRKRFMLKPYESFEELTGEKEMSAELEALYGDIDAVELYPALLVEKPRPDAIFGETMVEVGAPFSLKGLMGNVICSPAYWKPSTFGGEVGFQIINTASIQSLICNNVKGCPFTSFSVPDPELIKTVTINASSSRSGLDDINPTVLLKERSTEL
Description: as §1

human recombinant 5-LOX = target: T3, human recombinant 5-LOX (Homo sapiens, UniProt P09917); test: 5-Lipoxygenase inhibitory assay (5-LOX assay kit); format: biochemical
T3 construct: purchased
T3 sequence (P09917 1-674): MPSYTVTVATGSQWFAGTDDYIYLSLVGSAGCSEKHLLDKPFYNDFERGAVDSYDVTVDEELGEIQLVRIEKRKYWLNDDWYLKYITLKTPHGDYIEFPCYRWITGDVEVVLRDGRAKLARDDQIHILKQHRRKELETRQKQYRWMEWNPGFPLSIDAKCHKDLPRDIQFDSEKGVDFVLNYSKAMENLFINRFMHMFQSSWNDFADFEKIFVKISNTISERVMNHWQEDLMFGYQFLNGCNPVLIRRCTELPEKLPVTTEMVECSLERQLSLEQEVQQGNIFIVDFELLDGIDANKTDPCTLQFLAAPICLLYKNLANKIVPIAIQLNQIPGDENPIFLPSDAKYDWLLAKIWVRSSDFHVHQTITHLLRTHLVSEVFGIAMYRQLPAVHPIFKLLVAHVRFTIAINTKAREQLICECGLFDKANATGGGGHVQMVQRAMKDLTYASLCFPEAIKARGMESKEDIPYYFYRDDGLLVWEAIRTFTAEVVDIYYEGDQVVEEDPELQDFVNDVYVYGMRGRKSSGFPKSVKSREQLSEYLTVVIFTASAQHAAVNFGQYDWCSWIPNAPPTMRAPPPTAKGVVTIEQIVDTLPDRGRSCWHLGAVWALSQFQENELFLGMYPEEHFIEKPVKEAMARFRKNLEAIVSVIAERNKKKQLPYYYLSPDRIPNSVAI
Description: The MAS 1696 was tested against human recombinant 5-LOX using a 5-LOX assay kit. Briefly, 5-LOX solution (90 µL) was added with various MAS-1696 concentrations. The arachidonic acid (10 µL) was further added and the absorbance was measured at 490 nm against the blank.

[1] = test system: carrageenan-induced paw edema; test: Rat paw edema test induced by carrageenan; format: in vivo, Wistar rats; details: carrageenan 1% w/v, 2 h and 4 h, S-naproxen 15 mg/kg p.o., 4-allyl guaiacol 15.46 mg/kg, n = 6
Description: In vivo studies were performed as per the guidelines issued by the WHO, Geneva. The protocol was approved by the IAEC for animal handling. The Wistar rats (male; 225–250 g) and ICR mice (20–25 g) were procured from the Animal House facility of Panjab University Chandigarh. The anti-inflammatory activity of MAS-1696 was determined by injecting carrageenan in rat paws as published by us previously. The different groups of rats with six animals in each group were administered the drug. The fresh solution of carrageenan (Type IV, 0.1 mL, 1%) was used to induce acute edema by injecting it under the plantar aspect of the left hind paw. One […] (0.9%) of saline was administered to the right paw (control group). A plethysmometer was used to measure the change in the paw volume between two and four hours after the carrageenan challenge.

stomach (gastric ulcers) = test: Determination of ulcer index (gastric damage); format: in vivo, rats; details: S-naproxen 120 mg/kg p.o., equimolar doses of MAS-1696 or physical mixture; 4 h after treatment; n = 6
Description: The fasting rats were separated into four groups (n = 6). […] After 4 h of treatment, animals were sacrificed and the stomach was separated. This removed stomach was opened along the greater curvature and cleaned using saline to check for ulcers. The ulcers were graded as: 0—Normal texture stomach 0.5—Red coloration 1.0—Spot of ulcers 1.5—Hemorrhagic streaks 2.0—Ulcers up to 3 3.0—Ulcers above 3

[2] = Partition/distribution coefficient (log P), shake flask method with HPLC; format: physicochemical; details: 1-octanol–0.05 M phosphate buffer pH 7.4, 25 °C, n = 2
Description: (§2) The chromatographic purity of the compound MAS-1696, partition coefficient, chemical stability, and metabolic stability were assessed using RP-HPLC. An isocratic elution system of acetonitrile-methanol-water-acetic acid (70:18:12:0.01) was used. An injection volume of 10 µL and flow rate of 1 mL/min with a relative standard deviation of 0.5% reproducibility was maintained.
The aqueous phase and 1-octanol were stirred overnight. The MAS-1696 in 1-octanol (2 mL) and phosphate buffer (5 mL) was stirred at 25 °C in a water bath shaker for 8 h. Both layers were separated and filtered through Millipore’s 0.22 µm nylon membrane filter. The 1-octanol layer was diluted appropriately before being injected into the HPLC. The log P was determined by using the following equation:log Poct/wat = log ([solute]octanol)/([solute]unionized water)

[3] = Aqueous solubility in buffer pH 7.4 (HPLC); format: physicochemical; details: aqueous buffer of pH 7.4, HPLC
[4] = In vitro stability in simulated gastric fluid (HCl buffer pH 2); format: physicochemical; details: for % MAS-1696 Left in the Simulated Gastric Fluid of pH 2: 37 °C
Description: as §2
The HCl buffer (pH 2) at 37 °C was used to evaluate the chemical stability of MAS-1696. To a 400 µL solution of MAS-1696 (10 mg/mL in chloroform), 3.6 mL of HCl buffer (pH 2) was added and kept on a shaker plate at 37 °C. Aliquots (400 µL) collected at different time points were mixed with 1600 µL of acetonitrile. After centrifugation, the supernatant was subjected to HPLC analysis. The remaining percentage of MAS-1696 was determined using the formula:% remaining = (peak area at the respective time (min)/peak area at 0 min) × 100

[5] = In vitro human plasma stability; format: in vitro ADME; details: for % MAS-1696 Left in Human Plasma: 37 °C
Description: as §2
To a 50 µL solution of MAS-1696 (10 mg/mL in chloroform), 900 µL of human plasma was added and kept on a shaker plate at 37 °C. Aliquots (100 µL) were collected at different intervals and mixed with 900 µL of acetonitrile for precipitation of proteins. After centrifugation, the supernatant was subjected to HPLC analysis. The remaining percentage of the conjugate was calculated using the formula:% remaining = (peak area at the respective time (min)/peak area at 0 min) × 100.

- IC50 (COX1): 8.5 µM
- Selectivity Index (COX2; SI = IC50 COX1/IC50 COX2): 1.1
- IC50 (COX2; n = 3, mean ± SD, read-out: IC50 COX2 (converted)): 7.76 µM
- Rise in selectivity for COX2 over COX1 (COX selectivity index) compared to naproxen (COX2; vs parent compound naproxen): 23%
- IC50 (human recombinant 5-LOX; n = 3, mean ± SD, read-out: IC50 5-LOX (converted)): 28.5 µM
- logP at 8 h [2]: 4.7 ± 0.26
- Solubility (pH 7.4) [3]: BDL
- % MAS-1696 Left in the Simulated Gastric Fluid of pH 2 ([4]; 0 h): 100%
- % MAS-1696 Left in the Simulated Gastric Fluid of pH 2 ([4]; 2 h): 96.16%
- % MAS-1696 Left in the Simulated Gastric Fluid of pH 2 ([4]; 5 h): 90.72%
- % MAS-1696 Left in the Simulated Gastric Fluid of pH 2 ([4]; 8 h): 83.30%
- % MAS-1696 Left in the Simulated Gastric Fluid of pH 2 ([4]; 12 h): 77% and 77.03%
- % of MAS-1696 hydrolyzed in simulated gastric fluid ([4]; pH 2, 0 h): 0%
- % of MAS-1696 hydrolyzed in simulated gastric fluid ([4]; pH 2, 2 h): 3.84%
- % of MAS-1696 hydrolyzed in simulated gastric fluid ([4]; pH 2, 5 h): 9.28%
- % of MAS-1696 hydrolyzed in simulated gastric fluid ([4]; pH 2, 8 h): 16.7%
- % of MAS-1696 hydrolyzed in simulated gastric fluid ([4]; pH 2, 12 h): 22.97%
- % MAS-1696 Left in Human Plasma ([5]; 0 min): 100%
- % MAS-1696 Left in Human Plasma ([5]; 30 min): 0%
- % MAS-1696 Left in Human Plasma ([5]; 60 min): 0%
- melting point: 99 to 100 °C
SMILES: C=CCc1ccc(OC(=O)[C@@H](C)c2ccc3cc(OC)ccc3c2)c(OC)c1 [MAS-1696, (S)-4-Allyl-2-methoxyphenyl 2-(2-methoxynaphthalen-6-yl)propanoate]
- Anti-inflammatory effect (edema, paw volume) [1]: anti-inflammatory potency comparable or even superior to S-naproxen
- Anti-inflammatory effect (edema, paw volume) ([1]; listed as MAS1696): better anti-inflammatory effect when compared with S-naproxen
- Ulcer score / gastric damage (stomach (gastric ulcers)): considerably less damage; also recorded: significantly less stomach damage
- Hydrolysis in human plasma (in words) ([5]; 80% human plasma, 0, 30 and 60 min): completely hydrolyzed within half an hour; also recorded: readily hydrolyzed

SMILES: COc1ccc2cc([C@H](C)C(=O)O)ccc2c1 [Naproxen, S-naproxen]
- IC50 (COX2): 20.1 µM
- IC50 (human recombinant 5-LOX): 36.5 µM
- Anti-inflammatory effect (edema, paw volume) [1]: significant decrease in the edema and paw volume
- Ulcer score / gastric damage (stomach (gastric ulcers)): substantial rise in ulcer score compared with the control
